Measurements from PMC8781960, “Structural Basis of 2-Phenylamino-4-phenoxyquinoline Derivatives as Potent HIV-1 Non-Nucleoside Reverse Transcriptase Inhibitors” (Molecules, 2022).
Marks after values point to notes of the source that are not given here.

Legend:
[1] = tested on: MOLT-3 (acute lymphoblastic leukemia); assay: In vitro cytotoxicity (XTT); settings: for IC50: Homo sapiens, MOLT-3, 48 h, read-out: IC50 MOLT-3; for %C percentage cytotoxicity MOLT-3: at 50 µg/mL, inactive (IC50 ≥ 50 µg/mL)
Experimental: (§1) Background control wells contained the same volume as the complete culture medium. […] Samples at various concentrations were added to the microplate and incubated for another 48 h. Cell viability was determined by 3(4,5-dimethylthiazol-2-yl)-2-5-diphenyl tetrazolium bromide (MTT) assay (Sig-ma-Aldrich). The reagent was dissolved in phosphate-buffered saline at 5 mg/mL and filtered to sterilize and remove the small amount of insoluble residue present in some batches of MTT. […] Subsequently, dimethyl sulfoxide (100 µL; Merck, Germany) was added to dissolve the resulting formazan by sonication. The plates were read on a microplate reader (Molecular Devices, CA, USA) using a test wavelength of 550 nm and a reference wavelength of 650 nm. XTT assay for suspension cells was used for MOLT-3 cells.

[2] = tested on: H69AR (lung cancer, multidrug resistant); assay: In vitro cytotoxicity (MTT); assay type: cell-based, human; settings: 48 h; for %C percentage cytotoxicity H69AR: human, 50 µg/mL
Experimental: Background control wells contained the same volume as the complete culture medium. […] The reagent was dissolved in phosphate-buffered saline at 5 mg/mL and filtered to sterilize and remove the small amount of insoluble residue present in some batches of MTT. […] Subsequently, dimethyl sulfoxide (100 µL; Merck, Germany) was added to dissolve the resulting formazan by sonication. The plates were read on a microplate reader (Molecular Devices, CA, USA) using a test wavelength of 550 nm and a reference wavelength of 650 nm.

[3] = tested on: MRC-5 (normal embryonic lung cell); assay: In vitro cytotoxicity (MTT), normal cell line; settings: for IC50: Homo sapiens, MRC5, 48 h, read-out: IC50 MRC-5; for %C percentage cytotoxicity MRC-5: normal cell line, at 50 µg/mL, inactive (IC50 ≥ 50 µg/mL)
Experimental: as §1

[4] = tested on: S102 (Thai liver cancer); assay: In vitro cytotoxicity (MTT); settings: for %C percentage cytotoxicity S102: at 50 µg/mL, inactive (IC50 ≥ 50 µg/mL)
Experimental: as §1

[5] = tested on: HeLA (cervical carcinoma); assay: In vitro cytotoxicity (MTT); settings: for IC50: Homo sapiens, HeLa, 48 h, read-out: IC50 HeLA; for %C percentage cytotoxicity HeLA: at 50 µg/mL, inactive (IC50 ≥ 50 µg/mL)
Experimental: as §1

[6] = tested on: HepG2 (hepatocarcinoma); assay: In vitro cytotoxicity (MTT); settings: for IC50: Homo sapiens, HepG2, 48 h, read-out: IC50 HepG2; for %C percentage cytotoxicity HepG2: at 50 µg/mL, inactive (IC50 ≥ 50 µg/mL)
Experimental: as §1

[7] = tested on: A549 (lung carcinoma); assay: In vitro cytotoxicity (MTT); settings: for IC50: Homo sapiens, A549, 48 h, read-out: IC50 A549; for %C percentage cytotoxicity A549: at 50 µg/mL, inactive (IC50 ≥ 50 µg/mL)
Experimental: as §1

[8] = tested on: T47-D (hormone-dependent breast cancer); assay: In vitro cytotoxicity (MTT); settings: for IC50: Homo sapiens, T47D, 48 h, read-out: IC50 T47-D; for %C percentage cytotoxicity T47-D: at 50 µg/mL, inactive (IC50 ≥ 50 µg/mL)
Experimental: as §1

[9] = tested on: HL-60 (promyeloblast); assay: In vitro cytotoxicity (MTT); settings: for IC50: Homo sapiens, HL-60, 48 h, read-out: IC50 HL-60; for %C percentage cytotoxicity HL-60: at 50 µg/mL, inactive (IC50 ≥ 50 µg/mL)
Experimental: as §1

[10] = tested on: HuCCA-1 (cholangiocarcinoma); assay: In vitro cytotoxicity (MTT); settings: for IC50: Homo sapiens, HuCC-A1, 48 h, read-out: IC50 HuCCA-1; for %C percentage cytotoxicity HuCCA-1: at 50 µg/mL, inactive (IC50 ≥ 50 µg/mL)
Experimental: as §1

[11] = tested on: MDA-MB-231 (hormone-independent breast cancer); assay: In vitro cytotoxicity (MTT); settings: for IC50: Homo sapiens, MDA-MB-231, 48 h, read-out: IC50 MDA-MB-231; for %C percentage cytotoxicity MDA-MB-231: at 50 µg/mL, inactive (IC50 ≥ 50 µg/mL)
Experimental: as §1

[12] = target: T1, HIV-1 RT (Human immunodeficiency virus type 1 group M subtype B, UniProt P03366); design: method as in PMID 31698495; settings: 1 µM; previously reported values for 5a–5d; cited from earlier work
T1 construct: The reaction mixture consisted of template/primer complex, 2′-deoxy-nucleotide-5′-triphosphates (dNTPs), and RT enzyme in lysis buffer; purchased Roche Applied Science, Mannheim, Germany

[13] = target: T1, HIV-1 RT; assay: HIV-1 RT inhibition assay (Roche RT kit, colorimetric ELISA); assay type: biochemical; settings: read-out: Inhibitory activities (%) against HIV-1 RT
Text: The inhibition assay of HIV-1 RT was accomplished using the template/primer hybrid poly(A) × oligo(dT)15, digoxigenin (DIG)- and biotin-labeled nucleotides, an antibody to DIG that was conjugated to peroxidase (anti-DIG-POD), and the peroxidase substrate ABTS. The quantities of DIG- and biotin-labeled dUTP incorporated into DNA represent t HIV-1 RT activity. The HIV-RT inhibition assay was implemented using an RT assay kit (Roche Applied Science, Mannheim, Germany), and the procedures for assaying RT inhibition were performed as described in the kit protocol. […] The reaction mixture consisted of template/primer complex, 2′-deoxy-nucleotide-5′-triphosphates (dNTPs), and RT enzyme in lysis buffer with or without an inhibitor. […] The biotin-labeled dNTPs that were incorporated in the template bound to streptavidin because of the presence of RT. Unbound dNTPs were washed using a wash buffer, and anti-DIG-POD was added to the MTP. The DIG-labeled dNTPs incorporated in the template bound to the anti-DIG-POD antibody. Unbound anti-DIG-POD was also washed elaborately five times using a wash buffer. Finally, the peroxide substrate (ABST) was added to the MTP. A colored reaction product emerged during the cleavage of the substrate catalyzed by […]. The absorbance of the sample was measured at the optical density (OD) at 490 nm using the MTP (enzyme-linked immunosorbent assay [ELISA]) reader. The percentage inhibitory activities of the RT inhibitors were calculated by comparing with that of the sample without an inhibitor. The resulting color intensity was directly proportional to the RT activity. Percentage inhibitory values were calculated using the following formula: Inhibition (%) = [1–(OD value with RT and inhibitor−OD value without RT and inhibitors)/(OD value without inhibitors with RT−OD value without RT and inhibitors)] × 100.

Structure (SMILES)	IC50 [1] [µM]	%C percentage cytotoxicity H69AR [2]	IC50 [3] [µM]	%C percentage cytotoxicity S102 [4]	IC50 [5] [µM]	IC50 [6] [µM]	IC50 [7] [µM]	IC50 [8] [µM]	IC50 [9] [µM]	IC50 [10] [µM]	IC50 [11] [µM]	Inhibitory activities (%) against HIV-1 RT [12] [%]	melting point [°C]	%C percentage cytotoxicity MOLT-3 [1]	%C percentage cytotoxicity MRC-5 [3]	%C percentage cytotoxicity HepG2 [6]	%C percentage cytotoxicity A549 [7]	%C percentage cytotoxicity T47-D [8]	%C percentage cytotoxicity HuCCA-1 [10]	%C percentage cytotoxicity MDA-MB-231 [11]	other results
N#Cc1ccc(Nc2cc(Oc3ccc(C=O)cc3)c3ccccc3n2)cc1 [Compound 5a, 4-(4′-formylphenoxy)-2-(4″-cyanophenyl)-aminoquinoline]	15.6 ± 3.6	%C = 38.0 ^c	108 ± 4.7	%C = 20.9 ^c	12.6 ± 1.3	73.2 ± 7.7	122 ± 4.5	43 ± 5.3	16.6 ± 4.7	29.7 ± 2	77.7 ± 5.9	19.4 ± 1.7	267.1 to 268								
Cc1cc(C=O)cc(C)c1Oc1cc(Nc2ccc(C#N)cc2)nc2ccccc12 [Compound 5b, 4-(2′,6′-Dimethyl-4′-formylphenoxy)-2-(4″-cyanophenyl)-aminoquinoline]	11.8 ± 1.6		69.8 ± 4.3		3.9 ± 0.6	65.9 ± 6.1	51.2 ± 3	22.9 ± 0.9	4.5 ± 0.2	29.4 ± 2	15.9 ± 0.4	34.0 ± 2.5	291.3 to 292.2								IC50 ([2]; Homo sapiens, H69AR, mean ± standard error): 27.6 ± 3.4 µM; IC50 ([4]; Homo sapiens, 48 h, read-out: IC50 S102): 74 ± 5.3 µM
N#Cc1ccc(Nc2cc(Oc3ccc(C#N)cc3)c3ccccc3n2)cc1 [Compound 5c, 4-(4′-cyanophenoxy)-2-(4″-cyanophenyl)-aminoquinoline]		%C = 26.0 ^c		%C = 0.0 ^c								39.7 ± 3.0		%C = 6.0 ^c	%C = 12.0 ^c	%C = 44.8 ^c	%C = 26.0 ^c	%C = 45.0 ^c	%C = 23.0 ^c	%C = 38.4 ^c	%C percentage cytotoxicity HeLA [5]: %C = 25.0 ^c; %C percentage cytotoxicity HL-60 [9]: %C = 2.0 ^c
Cc1cc(C#N)cc(C)c1Oc1cc(Nc2ccc(C#N)cc2)nc2ccccc12 [Compound 5d, 4-(2′,6′-Dimethyl-4′-cyanophenoxy)-2-(4″-cyanophenyl)-aminoquinoline]	48.8 ± 41	%C = 0.0 ^c		%C = 0.0 ^c	83.4 ± 5.7				33.4 ± 1.7			27.8 ± 3.1	256.5 to 257		%C = 7.4 ^c	%C = 38.2 ^c	%C = 21.0 ^c	%C = 24.0 ^c	%C = 3.0 ^c	%C = 14.9 ^c	
Cc1cc(C#N)cc(C)c1Oc1cc(Nc2ccc(C#N)cc2)c2ccccc2n1 [Compound 8d, 2-(2′,6′-Dimethyl-4′-cyanophenoxy)-4-(4″-cyanophenyl)-aminoquinoline]	67.4 ± 3.1	%C = 0.0 ^c		%C = 0.0 ^c	104 ± 4.7				56.6 ± 4.7				201.3 to 202		%C = 15.5 ^c	%C = 32.0 ^c	%C = 29.1 ^c	%C = 31.0 ^c	%C = 18.4 ^c	%C = 32.4 ^c	inhibition at 1 µM [13]: 34.5 ± 2.3%
Cc1cc(C=CC#N)cc(C)c1Oc1cc(Nc2ccc(C#N)cc2)c2ccccc2n1 [Compound 11b, 2-(4′-(2″-(E, Z)-cyanovinyl)-2′,6′-dimethyl-phenoxy)-4-(4″-cyanophenyl)-aminoquinoline]		%C = 3.0 ^c		%C = 0.0 ^c									180.7 to 182.3	%C = 19.0 ^c	%C = 0.0 ^c	%C = 3.7 ^c	%C = 0.0 ^c	%C = 4.0 ^c	%C = 0.0 ^c	%C = 14.1 ^c	inhibition at 1 µM [13]: 34.3 ± 2.6%; %C percentage cytotoxicity HeLA [5]: %C = 2.0 ^c; %C percentage cytotoxicity HL-60 [9]: %C = 0.0 ^c
